Legend:
GppNHp-loaded KRASG12D = target: T1, GppNHp-loaded KRASG12D (Homo sapiens, UniProt P01116, G12D); experiment: Microscale thermophoresis, lysine NT-647-labeled GppNHp-loaded KRAS^G12D; type: binding; conditions: MST, GppNHp-bound KRAS^G12D, Table 6; read-out: KD
T1 construct: made in house; host or cells: Escherichia coli BL21-Gold (DE3)
Procedure: Microscale Thermophoresis
KRAS^G12D (250 μM) in 25 mM HEPES, 100 mM sodium chloride, 2 mM TCEP with 20 mM EDTA and 1 mM GppNHp was shaken at 220 rpm at 30° C. to remove the endogenous nucleotide, The solution was placed on ice for 2 minutes prior to the addition of 65 mM MgCl2. After an additional 10 minutes incubation on ice, 200 uL of a 10 uM solution of KRAS^G12D was combined with 200 uL of a 20 uM solution of NT-647-NHS-ester dye (from a 652.4 μM stock). The protein/dye mixture was rotated at 4° C. for 30 minutes, before being separated from the excess dye and buffer exchanged into 25 mM Tris, 100 mM sodium chloride, 2 mM TCEP, and 5 mM MgCl2 via a nap-5 column. The test compounds were arrayed across a 16-point dilution series consisting of 1.5% DMSO with 25 mM Tris, 100 mM NaCl, 2 mM TCEP, 5 mM MgCl2 and 0.05% tween-20. Thermophoretic movement of the fluorescently labeled protein with the inhibitors was performed using a Monolith NT.115 (Nanotemper Technologies). RALA and RHOA were purchased commercially from Abcam (RALA CN:ab102555, RHOA CN:ab101594).
In another set of experiments, the top D38-A59 two-site multivalent compounds were evaluated by a RAS pulldown using the RAS binding domain of CRAF (the top two hits are shown in FIG. 14D). This abrogation of binding between RAS and its effector protein was also evident in the RAS-RALGDS interaction (FIG. 14E). To quantify the binding of the two-site compounds to RAS, MST was performed again using lysine NT-647-labeled, GppNHp-loaded KRAS^G12D. […] The third (Y32) site was extended into (compound 34MEW95) using this scaffold.
Docking scores and dissociation constants for binding to GppNHp-bound KRAS^G12D (PDB:4DSN) were measured as set forth above for additional 2- and 3-site compounds by microscale thermophoresis.

KRAS^G12D⋅BODIPY-GTP = target: T2, KRAS^G12D⋅BODIPY-GTP (Homo sapiens, UniProt P01116, G12D); experiment: Nucleotide displacement assay with BODIPY-GTP (fluorescence polarization); type: binding; conditions: 2.5 μM KRAS^G12D⋅BODIPY-GTP, 12 hours
T2 construct: made in house; host or cells: Escherichia coli BL21-Gold (DE3)
Procedure: Nucleotide Displacement Assay
To investigate whether compounds were binding to the same site as GTP, a fluorescent polarization assay was implemented using fluorescently-labeled BODIPY-GTP as a probe. When BODIPY-GTP is free in solution, it has a low polarization. However, when BODIPY-GTP is bound to K-Ras protein, the polarization intensity is high. K-Ras G12D bound to BODIPY-GTP was incubated with different concentrations of ligand or unlabeled GTP or GDP in buffer containing 25 mM Tris-HCl, pH 8, 100 mM NaCl, 5 mM MgCl2, 1 mM EDTA, and 1 mM TCEP. The final concentration of K-Ras G12D bound to BODIPY-GTP in each well was 2.5 μM. The samples were incubated at 25° C. for 12 hours with gentle shaking to allow for the slow intrinsic nucleotide release reaction to take place. The change in fluorescence was measured on a Victor3 plate reader (Perkin Elmer) in 384-well black low-volume plates (Corning, Inc.). The BODIPY-GTP fluorophore was excited at 485 nm and emission was monitored at 535 nm.

[1] = tested on: caspases 3 and 7 in HT-1080 (NRAS^Q61K) cells; experiment: Caspase 3/7 activation assay; type: cell-based; conditions: staurosporine 5 μM, 24 hours
Procedure: Caspase 3/7 Activation Assay
HT-1080 cells were seeded into 384-well plates at 1,000 cells/well. After 12-16 hours, compounds (as 50 mM stocks in DMSO) were arrayed in a dilution series in 384-well polypropylene plates. Compound solutions were transferred at a 1:5 dilution into the assay plates for a total volume of 40 μL. After 24 hours, 8 μL of a 1:100 solution of rhodamine 110 bis-(N-CBZ-1-aspartyl-1-glutamyl-1-valyl-aspartic acid amide) to lysis buffer (APO-1, Promega) was added and the plate was wrapped in aluminum foil and incubated at room temperature for 16 hours. Fluorescence intensity was then determined using a Victor3 plate reader (Perkin Elmer) with a 490 nm excitation filter and a 535 nm emission filter. A viability curve was performed in parallel with the same incubation time using the procedure described in the “cell viability assays” section.

Microsomal stability = type: in vitro ADME; conditions: pH 7.4; mouse liver microsomes, 0.5 μM
Procedure: Test compounds (0.5 μM) were incubated at 37° C. for up to 45 minutes in 50 mM of potassium phosphate buffer (pH 7.4) containing microsomal protein (0.5 mg/mL) and an NADPH generating system (0.34 mg/mL β-nicotinamide adenine dinucleotide phosphate (NADP), 1.56 mg/mL glucose-6-phosphate, 1.2 units/mL glucose-6-phosphate dehydrogenase). At 0, 5, 15, 30 and 45 minute intervals an aliquot was taken and quenched with acetonitrile (ACN) containing an internal standard. No-cofactor controls at 45 minutes were prepared. Following completion of the experimentation, the samples were analyzed by LC-MS/MS using a Shimadzu HPLC and an Applied Biosystem AP 14000.

[2] = tested on: Mouse embryonic fibroblasts (MEFs), null Hras and Nras, floxed Kras; experiment: Growth inhibition of MEFs with floxed Kras locus; type: cell-based; conditions: 600 nM, 6 days, vs DMSO
Procedure: In parallel, cells were treated with DMSO or 4OHT at 600 nM for 6 days. […] Cells were then lysed and treated with a pro-fluorescent caspase 3/7 substrate (rhodamine 110 bis-N-CBZ-L-aspartyl-L-gluramyl-L-valyl-aspartic acid amide) for 16 hours and measured.
All cell culture assays were incubated at 37° C., 5% CO2 in media containing Dulbecco's Modified Eagle Medium (DMEM) with 10% fetal bovine serum (FBS) and 1% penicillin-streptomycin (PS). 384-well format for EC50 determination: cells were trypsinized, counted, and seeded into 384-well plates at 1,000 cells/well. After 12-16 hours, compounds (as 50 mM stocks in DMSO) were arrayed in an 8- or 16-point dilution series in 384-well polypropylene plates. Compound solutions were transferred at a 1:5 dilution into the assay plates. After 48 hours, a 50% Alamar blue solution was added to a final concentration of 10% Alamar blue. After 6 hours of incubation, fluorescence intensity was determined using a Victor3 plate reader (Perkin Elmer) with a 535 nm excitation filter and a 590 nm emission filter. All compound measurements were performed in triplicate. For experiments performed in 6-well format, cells were trypsinized, counted, and seeded into 6-well plates at 200,000 cells per well 16 h prior to use. […] After 24 hours, cells were trypsinized and viability was determined using Trypan Blue exclusion assay. […]

T1 sequence (P01116 1-169 isoform P01116-2 G12D): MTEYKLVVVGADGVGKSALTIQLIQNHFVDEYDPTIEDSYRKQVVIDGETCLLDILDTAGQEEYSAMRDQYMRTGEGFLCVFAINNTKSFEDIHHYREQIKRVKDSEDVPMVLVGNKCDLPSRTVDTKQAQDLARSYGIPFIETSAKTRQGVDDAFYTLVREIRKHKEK
T2 sequence (P01116 1-169 isoform P01116-2 G12D): as above

| Compound | Kd (GppNHp-loaded KRASG12D) | also measured |
| --- | --- | --- |
| CC(C)Oc1ccccc1-c1ccc(CNC2(C(=O)NCCCn3cc(-c4ccc(OC(F)(F)F)cc4)c4cc(CN5CCN(Cc6c(Cl)cccc6Cl)CC5)ccc43)CCNCC2)nc1 [Compound 43MEW73, N-(3-(5-((4-(2,6-dichlorobenzyl)piperazin-1-yl)methyl)-3-(4-(trifluoromethoxy)phenyl)-1H-indol-1-yl)propyl)-4-(((5-(2-isopropoxyphenyl)pyridin-2-yl)methyl)amino)piperidine-4-carboxamide] | 24 µM |  |
| Nc1nc2c(ncn2[C@@H]2O[C@H](COP(=O)(O)OP(=O)(O)O)[C@@H](O)[C@H]2O)c(=O)[nH]1 [GDP] |  | displacement of BODIPY-GTP (KRAS^G12D⋅BODIPY-GTP): can displace |
| Nc1nc2c(ncn2[C@@H]2O[C@H](COP(=O)(O)OP(=O)(O)OP(=O)(O)O)[C@@H](O)[C@H]2O)c(=O)[nH]1 [GTP] |  | displacement of BODIPY-GTP (KRAS^G12D⋅BODIPY-GTP): can displace |
| CN[C@@H]1C[C@H]2O[C@@](C)([C@@H]1OC)n1c3ccccc3c3c4c(c5c6ccccc6n2c5c31)C(=O)NC4 [staurosporine, reference compound] |  | fluorescence of caspase 3/7 substrate ([1]; 31MEW44 5 μM, 34MEW43 10 μM, 34MEW95 5 μM): Increased fluorescence; fluorescence of caspase 3/7 substrate ([1]; 31MEW44 2.5 and 5 μM): Increased fluorescence |
| O=C(NCCCn1cc(-c2c(C(F)(F)F)cccc2C(F)(F)F)c2cc(CN3CCN(Cc4cc(C(F)(F)F)cc(C(F)(F)F)c4)CC3)ccc21)C1CNCCN1 (stereo not shown) [Compound 32MEW56, N-(3-(5-((4-(3,5-bis(trifluoromethyl)benzyl)piperazin-1-yl)methyl)-3-(2,6-bis(trifluoromethyl)phenyl)-1H-indol-1-yl)propyl)piperazine-2-carboxamide] | > 10000 µM |  |
| CCOc1ccc2ccc(=O)oc2c1 [7-ethoxycoumarin, reference compound] |  | half-life at 0.5 μM (Microsomal stability): 3.9 min |
| O=C(NCCCn1cc(-c2ccc(OC(F)(F)F)cc2)c2cc(CN3CCN(Cc4c(Cl)cccc4Cl)CC3)ccc21)C1(NCc2ccc(OCc3cc(C(F)(F)F)cc(C(F)(F)F)c3)cc2)CCNCC1 [Compound 43MEW65, 4-((4-((3,5-bis(trifluoromethyl)benzyl)oxy)benzyl)amino)-N-(3-(5-((4-(2,6-dichlorobenzyl)piperazin-1-yl)methyl)-3-(4-(trifluoromethoxy)phenyl)-1H-indol-1-yl)propyl)piperidine-4-carboxamide] | 7.9 µM |  |
| COc1cc(CN2CCN(Cc3ccc4c(c3)c(-c3ccc(OC)cc3OC)cn4CCCNC(=O)C3CNCCN3)CC2)cc(OC)c1 (stereo not shown) [Compound 36MEW3, N-(3-(5-((4-(3,5-dimethoxybenzyl)piperazin-1-yl)methyl)-3-(2,4-dimethoxyphenyl)-1H-indol-1-yl)propyl)piperazine-2-carboxamide] | 230 µM |  |
| COc1ccccc1-c1cn(CCCNC(=O)C2(N)CCNCC2)c2cccc(CN3CCN(CCOc4ccc(Cl)cc4)CC3)c12 [Compound 34MEW45, 4-amino-N-(3-(4-((4-(2-(4-chlorophenoxy)ethyl)piperazin-1-yl)methyl)-3-(2-methoxyphenyl)-1H-indol-1-yl)propyl)piperidine-4-carboxamide] | 1350 µM |  |
| 4-hydroxytamoxifen [Compound 4OHT, reference compound] |  | growth inhibition [2]: 91% |

Second part, led by results:

| Kd (GppNHp-loaded KRASG12D) | Compound | also measured |
| --- | --- | --- |
| 26 µM | COc1cc(COc2ccc(CNC3(C(=O)NCCCn4cc(-c5ccc(OC(F)(F)F)cc5)c5cc(CN6CCN(Cc7c(Cl)cccc7Cl)CC6)ccc54)CCNCC3)cc2OC)cc(OC)c1 [Compound 43MEW63] |  |
| 36 µM | O=C(NCCCn1cc(-c2cccc(F)c2)c2c(CN3CCN(CCOc4ccc(Cl)cc4)CC3)cccc21)C1(NCc2ccc(OCc3ccc(F)cc3)c(Cl)c2)CCNCC1 [Compound 35MEW12, 4-((3-chloro-4-((4-fluorobenzyl)oxy)benzyl)amino)-N-(3-(4-((4-(2-(4-chlorophenoxy)ethyl)piperazin-1-yl)methyl)-3-(3-fluorophenyl)-1H-indol-1-yl)propyl)piperidine-4-carboxamide] |  |

Reference: US9926293B2, “Multivalent RAS binding compounds” (THE TRUSTEES OF COLUMBIA UNIVERSITY IN THE CITY OF NEW YORK, priority 2014, dated 2018)
